Experimental data reported in patent US9409915B2, “Substituted aza-bicyclic imidazole derivatives useful as TRPM8 receptor modulators” (Janssen Pharmaceutica NV, priority 2010, dated 2016).
Counter-ions that a name gives are not always drawn.

Tests used:
Male Sprague Dawley rats = test: Inhibition of icilin-induced "wet-dog" shakes in rats; type: in vivo; details: 10 mg/kg p.o. in 10% HP-β-CD, 60 min before icilin 3.0 mg/kg i.p.; rat wet-dog shakes
Experimental: Male Sprague Dawley rats (220-450 g, Charles River Labs, n=6-9/treatment) were used to evaluate the ability of test compounds to block icilin-induced “wet-dog” shakes (WDS). The test compound was administered in 10% hydroxypropyl-β-cyclodextrin (HP-β-CD), p.o., 60 min before icilin. Icilin was then administered in 10% solutol/H2O, at 3.0 mg/kg, i.p., and spontaneous “wet-dog” shakes were counted 10 min following the icilin injection over a 10-min period.

canine TRPM8 = canine TRPM8 (Canis lupus familiaris, UniProt Q1A7N1); test: In vitro canine TRPM8 functional assay (Ca2+-sensitive fluorescent dye, icilin activation); type: cell-based; details: HEK293 cells stably expressing canine TRPM8, icilin-induced Ca2+ response; for IC50: eight-point concentration-response
Sequence of canine TRPM8 (Q1A7N1 1-1104): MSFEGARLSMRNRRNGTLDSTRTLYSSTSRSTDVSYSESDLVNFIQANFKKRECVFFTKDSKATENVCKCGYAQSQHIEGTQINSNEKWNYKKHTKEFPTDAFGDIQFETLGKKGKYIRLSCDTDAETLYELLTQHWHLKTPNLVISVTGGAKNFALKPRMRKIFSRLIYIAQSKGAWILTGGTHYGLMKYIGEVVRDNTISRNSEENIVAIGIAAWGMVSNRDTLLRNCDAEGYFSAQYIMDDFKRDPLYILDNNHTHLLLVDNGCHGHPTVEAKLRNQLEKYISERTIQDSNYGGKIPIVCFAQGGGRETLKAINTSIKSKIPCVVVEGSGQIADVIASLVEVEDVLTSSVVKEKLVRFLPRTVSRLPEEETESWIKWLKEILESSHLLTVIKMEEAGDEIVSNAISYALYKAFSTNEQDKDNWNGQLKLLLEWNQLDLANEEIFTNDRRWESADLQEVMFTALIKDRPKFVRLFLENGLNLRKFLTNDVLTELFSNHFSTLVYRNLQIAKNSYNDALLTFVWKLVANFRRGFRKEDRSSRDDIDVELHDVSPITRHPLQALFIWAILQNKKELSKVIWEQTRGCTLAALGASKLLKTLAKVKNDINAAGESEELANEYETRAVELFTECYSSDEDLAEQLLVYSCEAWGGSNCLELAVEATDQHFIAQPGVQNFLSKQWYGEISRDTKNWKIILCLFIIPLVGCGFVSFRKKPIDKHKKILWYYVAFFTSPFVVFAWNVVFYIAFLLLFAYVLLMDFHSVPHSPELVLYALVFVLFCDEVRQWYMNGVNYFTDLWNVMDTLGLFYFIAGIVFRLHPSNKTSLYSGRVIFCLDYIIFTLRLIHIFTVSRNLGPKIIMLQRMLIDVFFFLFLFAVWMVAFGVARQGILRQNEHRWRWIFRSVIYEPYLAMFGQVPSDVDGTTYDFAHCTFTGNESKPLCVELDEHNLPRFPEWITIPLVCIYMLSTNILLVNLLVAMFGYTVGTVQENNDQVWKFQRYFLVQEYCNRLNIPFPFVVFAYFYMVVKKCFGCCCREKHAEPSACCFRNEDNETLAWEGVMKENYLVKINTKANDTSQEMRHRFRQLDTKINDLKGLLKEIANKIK

SMILES	Icilin % Inhibition @ 1.5 h, 10 mg/kg (Male Sprague Dawley rats) [%]	inhibition at 0.2 µM (canine TRPM8; 0.2 μM compound) [%]	IC50 (canine TRPM8) [nM]	inhibition at 0.2 µM (canine TRPM8; HEK293, 0.2 μM compound) [%]
COc1nc(-c2ccccc2Cl)cc2nc(-c3c(C#N)c(C(C)(C)C)nn3C)[nH]c12.CS(=O)(=O)O [Compound 17, 3-tert-Butyl-5-[6-(2-chloro-phenyl)-4-methoxy-3H-imidazo[4,5-c]pyridine-2-yl]-1-methyl-1H-pyrazole-4-carbonitrile methanesulfonic acid salt]	38	99	1.7	–
COCCOc1nc(-c2ccccc2C(F)(F)F)cc2nc(-c3c(Cl)c(C(C)(C)C)nn3C)[nH]c12 [Compound 20, 2-(5-tert-Butyl-4-chloro-2-methyl-2H-pyrazol-3-yl)-4-(2-methoxy-ethoxy)-6-(2-trifluoromethyl-phenyl)-3H-imidazo[4,5-c]pyridine benzenesulfonic acid salt]	–	99	0.95	–
Cn1nc(C(C)(C)C)c(Cl)c1-c1nc2cc(-c3ccccc3C(F)(F)F)ncc2[nH]1 [Compound 46, 2-(5-tert-Butyl-4-chloro-2-methyl-2H-pyrazol-3-yl)-6-(2-trifluoromethyl-phenyl)-3H-imidazo[4,5-c]pyridine hydrochloride]	–	99	19	–
CN1CCN(CCOc2nc(-c3ccccc3Cl)cc3nc(-c4c(Cl)c(C(C)(C)C)nn4C)[nH]c23)CC1 [Compound 55, 2-(5-tert-Butyl-4-chloro-2-methyl-2H-pyrazol-3-yl)-6-(2-chloro-phenyl)-4-[2-(4-methyl-piperazin-1-yl)-ethoxy]-3H-imidazo[4,5-c]pyridine]	–	–	54	95
CC(C)(C)c1cc(-c2nc3cc(-c4ccccc4C(F)(F)F)nc(Cl)c3[nH]2)on1 [Compound 73, 2-(3-tert-Butyl-isoxazol-5-yl)-4-chloro-6-(2-trifluoromethyl-phenyl)-3H-imidazo[4,5-c]pyridine hydrochloride]	–	100	28	–
Cn1nc(C(C)(C)C)c(Cl)c1-c1nc2cc(-c3ccccc3C(F)(F)F)nc(OCC(=O)O)c2[nH]1 [Compound 88, [2-(5-tert-Butyl-4-chloro-2-methyl-2H-pyrazol-3-yl)-6-(2-trifluoromethyl-phenyl)-3H-imidazo[4,5-c]pyridin-4-yloxy]-acetic acid]	–	36	–	–
Cn1nc(C(C)(C)C)cc1-c1nc2cc(-c3ccccc3C(F)(F)F)nc(Cl)c2[nH]1 [Compound 74, 2-(5-tert-Butyl-2-methyl-2H-pyrazol-3-yl)-4-chloro-6-(2-trifluoromethyl-phenyl)-3H-imidazo[4,5-c]pyridine hydrochloride]	–	93	96	–
COc1nc(-c2ccccc2C(F)(F)F)cc2nc(-c3cc(C(C)(C)C)nn3C)[nH]c12 [Compound 80, 2-(5-tert-Butyl-2-methyl-2H-pyrazol-3-yl)-4-methoxy-6-(2-trifluoromethyl-phenyl)-3H-imidazo[4,5-c]pyridine methanesulfonic acid salt]	–	100	42	–
Cn1nc2c(c1-c1nc3c(Cl)nc(-c4ccccc4C(F)(F)F)cc3[nH]1)CCC21CCCCC1 [Compound 72, 3′-{4-Chloro-6-[2-(trifluoromethyl)phenyl]-1H-imidazo[4,5-c]pyridin-2-yl}-2′-methyl-4′,5′-dihydro-2′H-spiro[cyclohexane-1,6′-cyclopenta[c]pyrazole] hydrochloride]	–	95	63	–
Cn1nc(C(C)(C)C)c(Cl)c1-c1nc2nc(-c3ccccc3OC(F)(F)F)ccc2[nH]1 [Compound 25, 2-(5-tert-Butyl-4-chloro-2-methyl-2H-pyrazol-3-yl)-5-(2-trifluoromethoxy-phenyl)-1H-imidazo[4,5-b]pyridine hydrochloride]	–	–	12	100
Cn1nc(C(C)(C)C)c(Cl)c1-c1nc2cc(-c3ccccc3C(F)(F)F)nc(C#N)c2[nH]1 [compound 60, 2-(5-tert-butyl-4-chloro-2-methyl-2H-pyrazol-3-yl)-6-(2-trifluoromethyl-phenyl)-3H-imidazo[4,5-c]pyridine-4-carbonitrile benzenesulfonic acid salt]	–	99	–	–
CN1CCN(c2nc(-c3ccccc3C(F)(F)F)cc3nc(-c4c(Cl)c(C(C)(C)C)nn4C)[nH]c23)CC1 [Compound 28, 2-(5-tert-Butyl-4-chloro-2-methyl-2H-pyrazol-3-yl)-4-(4-methyl-piperazin-1-yl)-6-(2-trifluoromethyl-phenyl)-3H-imidazo[4,5-c]pyridine methanesulfonic acid salt]	–	–	11	99
COc1nc(-c2ccccc2C(F)(F)F)cc2nc(-c3c(Cl)c(C(C)(C)C)nn3C)[nH]c12 [Compound 9, 2-(5-tert-Butyl-4-chloro-2-methyl-2H-pyrazol-3-yl)-4-methoxy-6-(2-trifluoromethyl-phenyl)-3H-imidazo[4,5-c]pyridine methanesulfonic acid salt, hydrochloride]	–	100	–	–
CC(C)(C)c1cc(-c2nc3nc(-c4ccccc4Cl)ccc3[nH]2)on1 [Compound 26, 2-(3-tert-Butyl-isoxazol-5-yl)-5-(2-chloro-phenyl)-1H-imidazo[4,5-b]pyridine]	–	100	35	–
Cn1nc(C(C)(C)C)c(Cl)c1-c1nc2cc(-c3ccccc3C(F)(F)F)nc(OCCN3CCOCC3)c2[nH]1 [Compound 49, 2-(5-tert-Butyl-4-chloro-2-methyl-2H-pyrazol-3-yl)-4-(2-morpholin-4-yl-ethoxy)-6-(2-trifluoromethyl-phenyl)-3H-imidazo[4,5-c]pyridine]	–	100	6.4	–
CC(C)Oc1nc(-c2ccccc2OC(F)(F)F)cc2nc(-c3c(Cl)c(C(C)(C)C)nn3C)[nH]c12 [Compound 93, 2-(5-tert-Butyl-4-chloro-2-methyl-2H-pyrazol-3-yl)-4-isopropoxy-6-(2-trifluoromethoxyphenyl)-3H-imidazo[4,5-c]pyridine sodium salt]	–	99	1.2	–
Cn1nc(C(C)(C)C)c(Cl)c1-c1nc2cc(-c3ccccc3Cl)nc(OCCN3CCCC3)c2[nH]1 [Compound 51, 2-(5-tert-Butyl-4-chloro-2-methyl-2H-pyrazol-3-yl)-6-(2-chloro-phenyl)-4-(2-pyrrolidin-1-yl-ethoxy)-3H-imidazo[4,5-c]pyridine]	–	88	72	–
Cn1nc(C(C)(C)C)cc1-c1nc2nc(-c3ccccc3C(F)(F)F)ccc2[nH]1 [Compound 34, 2-(5-tert-Butyl-2-methyl-2H-pyrazol-3-yl)-5-(2-trifluoromethyl-phenyl)-1H-imidazo[4,5-b]pyridine]	–	89	77	–
Cn1nc(C(C)(C)C)c(C#N)c1-c1nc2cc(-c3ccccc3Cl)nc(OCCO)c2[nH]1 [Compound 83, 3-tert-Butyl-5-[6-(2-chloro-phenyl)-4-(2-hydroxy-ethoxy)-3H-imidazo[4,5-c]pyridin-2-yl]-1-methyl-1H-pyrazole-4-carbonitrile]	–	99	1.8	–
COc1cc(-c2ccccc2C(F)(F)F)nc2nc(-c3cc(C(C)(C)C)nn3C)[nH]c12 [Compound 81, 2-(5-tert-Butyl-2-methyl-2H-pyrazol-3-yl)-7-methoxy-5-(2-trifluoromethyl-phenyl)-1H-imidazo[4,5-b]pyridine hydrochloride]	–	67	120	–
COc1nc(-c2ccccc2OC(F)(F)F)cc2nc(-c3c(Cl)c(C(C)(C)C)nn3C)[nH]c12 [Compound 2, 2-(5-tert-Butyl-4-chloro-2-methyl-2H-pyrazol-3-yl)-4-methoxy-6-(2-trifluoromethoxy-phenyl)-3H-imidazo[4,5-c]pyridine sodium salt]	–	100	13	–
COCCOc1cc(-c2ccccc2C(F)(F)F)nc2nc(-c3c(Cl)c(C(C)(C)C)nn3C)[nH]c12 [Compound 76, 2-(5-tert-Butyl-4-chloro-2-methyl-2H-pyrazol-3-yl)-7-(2-methoxy-ethoxy)-5-(2-trifluoromethyl-phenyl)-1H-imidazo[4,5-b]pyridine methanesulfonic acid salt]	–	–	5.8	98
CC(C)(C)c1cc(-c2nc3nc(-c4ccccc4C(F)(F)F)ccc3[nH]2)on1 [Compound 31, 2-(3-tert-Butyl-isoxazol-5-yl)-5-(2-trifluoromethyl-phenyl)-1H-imidazo[4,5-b]pyridine]	–	100	18	–
Cn1nc(C(C)(C)C)cc1-c1nc2cc(-c3ccccc3F)ncc2[nH]1 [Compound 42, 2-(5-tert-Butyl-2-methyl-2H-pyrazol-3-yl)-6-(2-fluoro-phenyl)-3H-imidazo[4,5-c]pyridine hydrochloride]	–	75	59	–
